The assay has as its system HLA-A*24. In words: MHC binding assay, UV-ligand exchange with beta2m ELISA, HLA-A*24. Also on record: species or system human. Particulars: binding to HLA-A*24 ranged by peptide exchange yield (UV-ligand exchange, beta2m ELISA). An excerpt:
Candidate peptides for T cell based therapies according to the present invention were further tested for their MHC binding capacity (affinity). The individual peptide-MHC complexes were produced by UV-ligand exchange, where a UV-sensitive peptide is cleaved upon UV-irradiation, and exchanged with the peptide of interest as analyzed. Only peptide candidates that can effectively bind and stabilize the peptide-receptive MHC molecules prevent dissociation of the MHC complexes. To determine the yield of the exchange reaction, an ELISA was performed based on the detection of the light chain (ß2 m) of stabilized MHC complexes. The assay was performed as generally described in Rodenko et al. (Rodenko et al., 2006).
96 well MAXISorp plates (NUNC) were coated over night with 2 ug/ml streptavidin in PBS at room temperature, washed 4× and blocked for 1 h at 37° C. in 2% BSA containing blocking buffer. […] Peptide-MHC monomers of the UV-exchange reaction were diluted 100 fold in blocking buffer. Samples were incubated for 1 h at 37° C., washed four times, incubated with 2 ug/ml HRP conjugated anti-β2 m for 1h at 37° C., washed again and detected with TMB solution that is stopped with […]. Absorption was measured at 450 nm. Candidate peptides that show a high exchange yield (preferably higher than 50%, most preferred higher than 75%) are generally preferred for a generation and production of antibodies or fragments thereof, and/or T cell receptors or fragments thereof, as they show sufficient avidity to the MHC molecules and prevent dissociation of the MHC complexes.
As for “360 (VFSPDGHLF; listed as Homo sapiens) [compound 360]”, the Peptide exchange entry was “+++ (50%-75% = +++)”. The value for “134 (AYIPTPIYF; listed as Homo sapiens) [compound 134]” was “+++ (50%-75% = +++)”; that for “372 (VYVIEPHSMEF; listed as Homo sapiens) [compound 372]” was “+++ (50%-75% = +++)”; that for “185 (QYLVHVNDL; listed as Homo sapiens) [compound 185]” was “++++ (>=75% = ++++)”. Then “138 (VYNAVSTSF; listed as Homo sapiens) [compound 138]”, with “++ (20%-49% = ++)”; and “129 (KYIDYLMTW; listed as Homo sapiens) [compound 129]”, with “++++ (>=75% = ++++)”; and “205 (VYPVVLNQI; listed as Homo sapiens) [compound 205]”, with “+++ (50%-75% = +++)”.

In the case of “352 (QYGGDLTNTF; listed as Homo sapiens) [compound 352]”, the Peptide exchange entry is “+++ (50%-75% = +++)”.

In the case of “299 (KYQYVLNEF; listed as Homo sapiens) [compound 299]”, the Peptide exchange result is given as “+++ (50%-75% = +++)”. The value for “384 (RYFDVGLHNF; listed as Homo sapiens) [compound 384]” was “+++ (50%-75% = +++)”; that for “149 (SYGTVSQI; listed as Homo sapiens) [compound 149]” was “++++ (>=75% = ++++)”. “154 (VYGVPTPHF; listed as Homo sapiens) [compound 154]”: the Peptide exchange result is recorded as “++++ (>=75% = ++++)”.

As to “225 (TYTNTLERL; listed as Homo sapiens) [compound 225]”, the Peptide exchange entry is reported as “+++ (50%-75% = +++)”. On to “277 (FYTFPFQQL; listed as Homo sapiens) [compound 277]”, for which the Peptide exchange entry is listed as “+++ (50%-75% = +++)”. As for “272 (RYVFPLPYL; listed as Homo sapiens) [compound 272]”, the Peptide exchange result is recorded as “++++ (>=75% = ++++)”. The value for “231 (AFADVSVKF; listed as Homo sapiens) [compound 231]” was “++++ (>=75% = ++++)”; that for “102 (VYPFENFEF; listed as Homo sapiens) [compound 102]” was “+++ (50%-75% = +++)”; that for “187 (AYAANVHYL; listed as Homo sapiens) [compound 187]” was “++++ (>=75% = ++++)”. Consider “241 (SYVKVLHHL; listed as Homo sapiens) [compound 241]”, for which the Peptide exchange result was “+++ (50%-75% = +++)”.

With “355 (IYVTGGHLF; listed as Homo sapiens) [compound 355]”, the Peptide exchange entry is given as “+++ (50%-75% = +++)”. Then “382 (AYLPPLQQVF; listed as Homo sapiens) [compound 382]”, with “+++ (50%-75% = +++)”. Then “108 (PYLVVIHTL; listed as Homo sapiens) [compound 108]”, with “+++ (50%-75% = +++)”. Then “300 (TYPSQLPSL; listed as Homo sapiens) [compound 300]”, with “+++ (50%-75% = +++)”; and “293 (VYPHFSTTNLI; listed as Homo sapiens) [compound 293]”, with “++++ (>=75% = ++++)”. As for “226 (MYLKLVQLF; listed as Homo sapiens) [compound 226]”, the Peptide exchange entry is recorded as “++ (20%-49% = ++)”. The value for “168 (RYLEAALRL; listed as Homo sapiens) [compound 168]” was “+++ (50%-75% = +++)”. Turning to “117 (IYLSDLTYI; listed as Homo sapiens) [compound 117]”, the Peptide exchange result is listed as “+++ (50%-75% = +++)”. As for “176 (FYINGQYQF; listed as Homo sapiens) [compound 176]”, the Peptide exchange entry was “+++ (50%-75% = +++)”. The value for “99 (QYILAVPVL; listed as Homo sapiens) [compound 99]” was “++++ (>=75% = ++++)”. As for “110 (SYPKIIEEF; listed as Homo sapiens) [compound 110]”, the Peptide exchange entry is reported as “+++ (50%-75% = +++)”. Then “281 (NYSPGLVSLIL; listed as Homo sapiens) [compound 281]”, with “+++ (50%-75% = +++)”. “304 (EYNEVANLF; listed as Homo sapiens) [compound 304]”: the Peptide exchange entry is “+++ (50%-75% = +++)”. Regarding “371 (AYSHLRYVF; listed as Homo sapiens) [compound 371]”, the Peptide exchange entry was “++ (20%-49% = ++)”. The value for “305 (NYENKQYLF; listed as Homo sapiens) [compound 305]” was “++++ (>=75% = ++++)”; that for “250 (KYPDIASPTF; listed as Homo sapiens) [compound 250]” was “++ (20%-49% = ++)”. In the case of “139 (IFGIFPNQF; listed as Homo sapiens) [compound 139]”, the Peptide exchange entry is “+++ (50%-75% = +++)”. The value for “228 (IYQYVADNF; listed as Homo sapiens) [compound 228]” was “+++ (50%-75% = +++)”; that for “361 (TYADIGGLDNQI; listed as Homo sapiens) [compound 361]” was “+++ (50%-75% = +++)”; that for “274 (KQLDIANYELF; listed as Homo sapiens) [compound 274]” was “++++ (>=75% = ++++)”. Then “159 (IYEETRGVL; listed as Homo sapiens) [compound 159]”, with “+++ (50%-75% = +++)”. Take “249 (RYHPTTCTI; listed as Homo sapiens) [compound 249]”: the Peptide exchange entry was “++++ (>=75% = ++++)”. Consider “273 (IYGEKLQFIF; listed as Homo sapiens) [compound 273]”, for which the Peptide exchange result is recorded as “+++ (50%-75% = +++)”. The value for “317 (VFDTSIAQLF; listed as Homo sapiens) [compound 317]” was “+++ (50%-75% = +++)”.

As for “195 (AYIKGGWIL; listed as Homo sapiens) [compound 195]”, the Peptide exchange entry is “+++ (50%-75% = +++)”. Then “286 (SYGTILSHI; listed as Homo sapiens) [compound 286]”, with “++++ (>=75% = ++++)”. The value for “155 (IYKWITDNF; listed as Homo sapiens) [compound 155]” was “++++ (>=75% = ++++)”; that for “122 (EYQARIPEF; listed as Homo sapiens) [compound 122]” was “+++ (50%-75% = +++)”; that for “259 (YFIKSPPSQLF; listed as Homo sapiens) [compound 259]” was “++ (20%-49% = ++)”. The value for “379 (VFIAQGYTL; listed as Homo sapiens) [compound 379]” was “++++ (>=75% = ++++)”; that for “207 (LYSDAFKFIVF; listed as Homo sapiens) [compound 207]” was “+++ (50%-75% = +++)”. For the substance “271 (RFLMKSYSF; listed as Homo sapiens) [compound 271]”, the Peptide exchange entry is “++++ (>=75% = ++++)”.

Turning to “230 (TYGMVMVTF; listed as Homo sapiens) [compound 230]”, the Peptide exchange result is listed as “+++ (50%-75% = +++)”. The value for “221 (KYIGNLDLL; listed as Homo sapiens) [compound 221]” was “++++ (>=75% = ++++)”. Then “279 (VWLPASVLF; listed as Homo sapiens) [compound 279]”, with “+++ (50%-75% = +++)”.

Take “257 (IFIDNSTQPLHF; listed as Homo sapiens) [compound 257]”: the Peptide exchange entry is given as “+++ (50%-75% = +++)”. Then “234 (SYLPAIWLL; listed as Homo sapiens) [compound 234]”, with “+++ (50%-75% = +++)”. Then “192 (RYSTFSEIF; listed as Homo sapiens) [compound 192]”, with “+++ (50%-75% = +++)”; and “144 (VFASLPGFLF; listed as Homo sapiens) [compound 144]”, with “++++ (>=75% = ++++)”. For the substance “121 (RYGLPAAWSTF; listed as Homo sapiens) [compound 121]”, the Peptide exchange entry is “+++ (50%-75% = +++)”. As to “209 (AFIETPIPLF; listed as Homo sapiens) [compound 209]”, the Peptide exchange entry is on record as “++++ (>=75% = ++++)”. The value for “197 (IFTDIFHYL; listed as Homo sapiens) [compound 197]” was “++++ (>=75% = ++++)”. The value for “292 (FYPQIINTF; listed as Homo sapiens) [compound 292]” was “++++ (>=75% = ++++)”; that for “224 (PYFFANQEF; listed as Homo sapiens) [compound 224]” was “+++ (50%-75% = +++)”. The value for “148 (SYGTVSQIF; listed as Homo sapiens) [compound 148]” was “++++ (>=75% = ++++)”; that for “143 (KYIFQLNEI; listed as Homo sapiens) [compound 143]” was “+++ (50%-75% = +++)”; that for “244 (VHFEDTGKTLLF; listed as Homo sapiens) [compound 244]” was “+++ (50%-75% = +++)”.

These data come from patent US11541107B2, “Peptides and T cells for use in immunotherapeutic treatment of various cancers” (Immatics Biotechnologies GmbH, priority 2015, dated 2023).
